Reference: patent US6229029A, “11β-aryl substituted 14,17-ethanoestratriens, method for the production of these compounds and their use in the production of medicaments” (Schering Aktiengesellschaft, priority 1997, dated 2001)

What was measured:
estrogen receptors = target: T1, estrogen receptors (Homo sapiens, UniProt P03372); assay: Transactivation assay in HeLa cells (partial estrogenic action, rPR-TK); type: cell-based; details: rPR-TK reporter, read-out: Agonism HELA (rPR-TK)
T1 construct: expressed in transfected cells; host or cells: HeLa cells
Procedure: The partial estrogenic action was also determined by transactivation assays. HeLa cells were […] with estrogen receptors and a reporter gene, which consists of the estrogen-response element of the progesterone receptor and the CAT-gene. The test was performed as described: Savouret et al., EMBO J. 10, 1875-1883 (1991).

[1] = system: trabecular bone (proximal tibia) of ovariectomized rats; assay: Bone studies in ovariectomized rats: trabecular bone surface area (TB/TV), histological, proximal tibia; type: in vivo, rat; details: Table 4, proximal tibia, 28 days
Procedure: 3-month-old female rats are ovariectomized and treated once daily with the test compound immediately after the operation for 28 days. The administration is done subcutaneously in castor oil/benzyl benzoate or arachis oil/ethanol. The animals are sacrificed on the day after the last administration, and femurs, tibiae and uteri are removed. The uteri are weighed, fixed and worked up for histological studies. The determination of the bone density is carried out ex vivo on prepared long bones with use of pQCT (Quantitative Computer Tomography). The measurements are performed at a distance of 5-7 mm from the ball of the joint on the distal femur or the proximal tibia.
As an alternative, the action on the bone is determined by measuring the trabecular bone surface area of the secondary spongiosa in histological preparations of the distal femur or the proximal tibia. The result is expressed as the proportion, in percent, of the trabecular bone surface area in the measured total bone surface area ([…]). The bone density that is measured with use of QCT and the trabecular bone surface area that is determined in the histological section correlate well to one another. A comparison of the two measurement variables is therefore permissible.
About 50% of the bone density of the animals is lost by the ovariectomy. […] In Table 4 and FIG. 2, the results of this test for doses of 0.1-100 μg/animal/day are presented. The bone density was measured on the distal femur; for comparison, the trabecular bone surface area in the proximal tibia was measured. The data that are contained in Table 4 mean specifically:
TB/TV trabecular bone surface area/total bone surface area; histologically determined
For compound B according to the invention, their bone-protecting action was also determined (Table 6). For this purpose, the parameter of TB/TV was determined, which, however, with respect to the informational value for the bone-protecting activity correlates well to the parameter of BMD-qCT that is determined for compounds A and V. This can be ascertained from Table 4; both parameters were determined for compound A.

T1 sequence (P03372 whole entry): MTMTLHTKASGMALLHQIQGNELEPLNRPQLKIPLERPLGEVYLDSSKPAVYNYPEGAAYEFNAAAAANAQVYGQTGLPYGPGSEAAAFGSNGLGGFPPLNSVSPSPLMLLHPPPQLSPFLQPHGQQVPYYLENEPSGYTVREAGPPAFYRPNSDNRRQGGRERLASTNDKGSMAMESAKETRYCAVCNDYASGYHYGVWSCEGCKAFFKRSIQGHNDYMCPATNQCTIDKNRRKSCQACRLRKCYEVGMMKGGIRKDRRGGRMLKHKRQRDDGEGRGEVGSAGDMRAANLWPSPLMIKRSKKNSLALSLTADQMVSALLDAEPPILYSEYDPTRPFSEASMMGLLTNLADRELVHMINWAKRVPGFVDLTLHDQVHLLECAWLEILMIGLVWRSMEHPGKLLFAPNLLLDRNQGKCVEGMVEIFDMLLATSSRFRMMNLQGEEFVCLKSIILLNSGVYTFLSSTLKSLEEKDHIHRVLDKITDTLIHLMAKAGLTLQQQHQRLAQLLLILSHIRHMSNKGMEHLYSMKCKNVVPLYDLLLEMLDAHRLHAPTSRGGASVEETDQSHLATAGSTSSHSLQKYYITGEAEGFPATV

For `C[C@]12C[C@H](c3ccc(OCCCCCS(=O)(=O)Cc4ccccn4)cc3)[C@@H]3c4ccc(O)cc4CC[C@H]3[C@]13CC[C@@]2(O)CC3` [Compound A], the Emax (estrogen receptors) was 16%, the “TB/TV (Tibia)” value ([1]; 0.1 μg/animal/day s.c.) was 17.2% and the “% of Action of E2 (TB/TV tibia)” value ([1]; 1 μg/animal/day s.c.) was 17%. For the same molecule, the “TB/TV (Tibia)” value ([1]; 1 μg/animal/day s.c.) was 18.9%, the “% of Action of E2 (TB/TV tibia)” value ([1]; 10 μg/animal/day s.c.) was 35% and the “TB/TV (Tibia)” value ([1]; 10 μg/animal/day s.c.) was 22.5%. The “% of Action of E2 (TB/TV tibia)” value ([1]; 100 μg/animal/day s.c.) was 62%, the “TB/TV (Tibia)” value ([1]; 100 μg/animal/day s.c.) was 27.0% and the “% of Action of E2 (TB/TV tibia)” value ([1]; cell empty for 17β-estradiol, 0.1 μg/animal/day s.c.) was 4.1%.
